Laboratory results: patent publication EP2724723A1, “Tegaserod for use in the treatment of nerve injuries” (Universitätsklinikum Hamburg-Eppendorf, priority 2012, dated 2014)

Tests used:
murine motoneurons = experiment: In vitro neurite outgrowth of motoneurons; type: cell-based, C57BL/6J mice; settings: tegaserod, cisapride, GR113808 100 nM; colominic acid 3 µM; PSA mimicking peptide 30 µM; Figure 2B
Procedure: (§1) Primary cultures of cerebellar neurons or Schwann cells were prepared from cerebellum or dorsal root ganglia of 7-day-old C57BL/6J mice as described in Mehanna et al. (2009), Brain, 132 (Pt 6): 1449-62 and Loers et al. (2005), J. Neurochem., 92(6): 1463-76. Motoneurons were prepared from E14 C57BL/6J mice as described in Simova et al. (2006), Ann. Neurol., 60(4): 430-437. In brief, 48-well plates were coated with 0.01% poly-L-lysine (PLL) or poly-L-ornithine (PLO) overnight at 4°C, washed twice with water and air-dried. Directly before use, plates were washed twice with PBS, and Schwann cells, cerebellar neurons (PLL) or motoneurons (PLO) were seeded at a density of 1.25 x 10^4 (Schwann cells and motoneurons) or 2.5 x 10^4 cells (cerebellar neurons) per well in 250 µl of corresponding serum-free culture medium. Soluble organic compounds were added to the culture 1 h after seeding in increasing concentrations. After maintenance for 24 h at 37°C, cells were fixed with 2.5% glutaraldehyde and stained with 1% methylene blue/toluidine blue in 1% borax. Morphological quantification of neurite or process lengths was performed as described in Mehanna et al. (2009), see above. Schwann cell processes and neurites of cerebellar neurons with a length of at least one cell body diameter were counted and total neurite or process length per cell was determined by counting 50 cells in each of two wells per experiment. At least three independent experiments were performed for each culture. Also, the activity of tegaserod with the PSA peptide mimic and the bacterial PSA analogue, colominic acid, on neurite and process extension experiments was compared.

[1] = tested on: cerebellar granule neurons (cGNs); experiment: In vitro neurite outgrowth of cerebellar granule neurons; type: cell-based, C57BL/6J mice; settings: compared to control; Figure 2C, D
Procedure: as §1

[2] = tested on: motoneurons isolated from NCAM^-/- mice; experiment: In vitro neurite outgrowth of NCAM-deficient motoneurons; type: cell-based; settings: tegaserod 100 nM; colominic acid 3 µM; PSA mimicking peptide 30 µM; Figure 2B
Procedure: as §1, with “After maintenance for 24 h at 37°C, cells were fixed with 2.5% glutaraldehyde and stained with 1% methylene blue/toluidine blue in 1% borax.” left out, “At least three independent experiments were performed for each culture. Also, the activity of tegaserod with the PSA peptide mimic and the bacterial PSA analogue, colominic acid, on neurite and process extension experiments was compared.” left out

[3] = tested on: murine cerebellar granule neurons (cGNs), Schwann cells, and motoneurons; experiment: In vitro neurite/process outgrowth, statements covering all cell types; type: cell-based, C57BL/6J mice
Procedure: as §1

Cn1cc(C(=O)OCC2CCN(CCNS(C)(=O)=O)CC2)c2ccccc21 [GR 113808]
effect on neurite extension of murine motoneurons (in words) (murine motoneurons): no ability to enhance motoneuron neurite extension

COc1cc(N)c(Cl)cc1C(=O)NC1CCN(CCCOc2ccc(F)cc2)CC1OC (stereo not drawn) [cisapride]
effect on neurite outgrowth of cGNs (in words) [1]: not observed | effect on neurite extension of murine motoneurons (in words) (murine motoneurons): no ability to enhance motoneuron neurite extension

NCCc1c[nH]c2ccc(O)cc12 [serotonin]
effect on neurite outgrowth of cGNs (in words) [1]: not observed | effect on neurite extension of murine motoneurons (in words) (murine motoneurons): no ability to enhance motoneuron neurite extension

NTHTDPYIYPIDC [PSA mimicking peptide]
effect on neurite extension of murine motoneurons (in words) (murine motoneurons): significant stimulatory effect | effect on neurite extension of NCAM^-/- motoneurons (in words) [2]: no enhancement in neurite extension | concentration of maximal stimulatory effects ([3]; neurite and process extension of neurons and Schwann cells): 30 µM | effect of overdosing / higher concentrations (in words) ([3]; neurons and Schwann cells): did not lead to any negative side effects
